Experimental data: ChEMBL document CHEMBL4825667, “α-Glucosidase Inhibitors from Ageratina grandifolia” (J Nat Prod, 2021)
The source made the active and inactive calls. The rule behind the calls is not given here.

Experiments:
[1] = Inhibition of yeast Alpha-glucosidase using p-nitro phenyl-alpha-D-glucopyranoside as a substrate measured after 20 mins by spectrophotocolorimetric analysis; design: species or system Saccharomyces cerevisiae
Homo sapiens [2] = species on record: Homo sapiens; assay: Inhibition of Type-1 alpha glucosidase (unknown origin)
Homo sapiens [3] = species on record: Homo sapiens; assay: Inhibition of Type-2 alpha glucosidase (unknown origin)
Saccharomyces cerevisiae [4] = assay: Mixed type inhibition of yeast Alpha- glucosidase assessed as decrease in Vmax using varying levels of p-NPG as substrate measured after 20 mins by reciprocal Lineweaver-Burk plot analysis
Saccharomyces cerevisiae [5] = assay: Mixed type inhibition of yeast Alpha- glucosidase assessed as increase in Km using varying levels of p-NPG as substrate measured after 20 mins by reciprocal Lineweaver-Burk plot analysis

SMILES: O=C(/C=C/c1ccc(O)c(O)c1)OC[C@H]1O[C@@H](Oc2cc3oc(-c4ccc(O)cc4)c(O)c(=O)c3c(O)c2O)[C@H](O)[C@@H](O)[C@@H]1O
- IC50 [1]: 6.94 µM

SMILES: C[C@H]1O[C@H](O[C@H]2[C@H](O)[C@@H](O)[C@@H](O[C@H]3[C@H](O)[C@@H](O)C(O)O[C@@H]3CO)O[C@@H]2CO)[C@H](O)[C@@H](O)[C@@H]1N[C@H]1C=C(CO)[C@@H](O)[C@H](O)[C@H]1O (stereo partly drawn) [ACARBOSE]
- IC50 [1]: 279 µM
- inhibition (Homo sapiens [2]): Active
- inhibition (Homo sapiens [3]): Active

SMILES: C/C=C(/C)C(=O)O[C@@H](c1cc(C(C)=O)ccc1O)[C@H]1OC1(C)C
- IC50 [1]: 288 µM

SMILES: CC(=O)c1ccc2c(c1)C=CC(C)(C)O2
- IC50 [1]: 460 µM

SMILES: O=c1c(O)c(-c2ccc(O)c(O)c2)oc2cc(O[C@@H]3O[C@H](CO)[C@@H](O)[C@H](O)[C@H]3O)c(O)c(O)c12
- IC50 [1]: 402 µM

SMILES: COc1cc2c(cc1C(C)=O)C=CC(C)(C)O2 [ENCECALIN]
- IC50 [1]: 440 µM

SMILES: COc1cc2c(cc1C(C)OC)C=CC(C)(C)O2 (stereo not drawn)
- IC50 [1]: 404 µM

SMILES: O=C(/C=C/c1ccc(O)c(O)c1)OC[C@H]1O[C@@H](Oc2cc3oc(-c4ccc(O)c(O)c4)c(O)c(=O)c3c(O)c2O)[C@H](O)[C@@H](O)[C@@H]1O
- IC50 [1]: 0.79 µM
- Vmax (Saccharomyces cerevisiae [4]): 1.42 mM/min
- Km (Saccharomyces cerevisiae [5]): 610 µM

SMILES: COc1cc2c(cc1C(C)O)C=CC(C)(C)O2 (stereo not drawn)
- IC50 [1]: 672 µM
